Tests used:
[1] = pKa value was determined; assay type: physicochemical
[2] = biological target: Acetylcholinesterase (Electrophorus electricus, UniProt O42275); assay: Inhibitory activity against acetylcholinesterase as a prodrug was demonstarted
Sequence of Acetylcholinesterase (O42275 whole entry): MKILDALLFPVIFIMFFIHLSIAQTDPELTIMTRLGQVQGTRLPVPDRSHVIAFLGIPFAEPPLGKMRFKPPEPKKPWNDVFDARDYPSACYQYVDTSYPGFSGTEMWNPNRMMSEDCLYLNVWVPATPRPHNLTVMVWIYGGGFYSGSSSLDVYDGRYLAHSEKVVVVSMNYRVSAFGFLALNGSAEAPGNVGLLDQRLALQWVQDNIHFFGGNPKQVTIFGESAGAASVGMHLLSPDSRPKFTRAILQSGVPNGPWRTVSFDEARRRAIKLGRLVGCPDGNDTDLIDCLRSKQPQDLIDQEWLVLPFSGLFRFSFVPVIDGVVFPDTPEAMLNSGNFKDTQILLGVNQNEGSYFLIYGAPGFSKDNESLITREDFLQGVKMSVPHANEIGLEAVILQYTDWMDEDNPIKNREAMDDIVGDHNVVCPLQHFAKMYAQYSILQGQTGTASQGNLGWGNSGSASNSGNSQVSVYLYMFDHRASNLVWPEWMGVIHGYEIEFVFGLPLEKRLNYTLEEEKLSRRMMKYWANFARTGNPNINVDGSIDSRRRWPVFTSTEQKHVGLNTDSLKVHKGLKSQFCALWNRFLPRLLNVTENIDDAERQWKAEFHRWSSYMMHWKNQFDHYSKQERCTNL

SMILES | pKa [1] | IC50 [2]
CNC(=O)Oc1ccc2c(c1)[C@]1(C)CCN(C)[C@@H]1N2C [PHYSOSTIGMINE] | 7.9 | –
CC1c2cc(OC(=O)N(C)C)ccc2NC1[n+]1cccc(C(N)=O)c1 (configuration not stated) | – | 50 µM
